Target: T1, CRTH2 (Homo sapiens, UniProt Q9Y5Y4)
T1 construct: expressed in transfected cells; host or cells: CHO cells
T1 sequence (Q9Y5Y4 1-395): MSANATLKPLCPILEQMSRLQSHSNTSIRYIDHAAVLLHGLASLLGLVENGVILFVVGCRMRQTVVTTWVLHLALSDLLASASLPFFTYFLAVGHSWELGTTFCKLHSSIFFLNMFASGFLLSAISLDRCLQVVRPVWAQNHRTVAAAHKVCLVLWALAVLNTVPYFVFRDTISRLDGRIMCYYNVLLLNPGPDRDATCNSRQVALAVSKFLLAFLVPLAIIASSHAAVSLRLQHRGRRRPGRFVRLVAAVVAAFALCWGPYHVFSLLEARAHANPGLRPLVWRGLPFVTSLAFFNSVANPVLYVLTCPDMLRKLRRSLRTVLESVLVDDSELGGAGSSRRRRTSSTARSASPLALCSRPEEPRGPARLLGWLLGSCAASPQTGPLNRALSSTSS
Assay: FRET based competitive immunoassay (cAMP) in CRTH2 expressing CHO cells
Type: cell-based
Conditions: CRTH2 expressing CHO cells incubated with forskolin and PGD2; Eu3+ cryptate-labeled anti-cAMP and d2-labeled cAMP
Description: FRET Assay: To evaluate potency compounds were tested in a FRET based competitive immunoassay in which CRTH2 expressing CHO cells were incubated in the presence of forskolin and PGD2 along with Eu3+ cryptate-labeled anti-cAMP and d2-labeled cAMP.

SMILES	IC50 [nM]
Cc1c(-c2nn(Cc3ccccc3)c(=O)c3ccccc23)c2ccccc2n1CC(=O)NS(C)(=O)=O [Example 50, 2-(3-(3-Benzyl-4-oxo-3,4-dihydrophthalazin-1-yl)-2-methyl-1H-indol-1-yl)-N-(methylsulfonyl)acetamide]	> 1500
CCn1nc(-c2c(C)n(CC(=O)O)c3ccc(F)cc23)ccc1=O [Example 160, 2-(3-(1-ethyl-6-oxo-1,6-dihydropyridazin-3-yl)-5-fluoro-2-methyl-1H-indol-1-yl)acetic acid]	375
Cc1c(-c2nn(CC(N)=O)c(=O)c3ccccc23)c2cc(F)ccc2n1CC(=O)O [Example 258, {3-[3-(2-amino-2-oxoethyl)-4-oxo-3,4-dihydrophthalazin-1-yl]-5-fluoro-2-methyl-1H-indol-1-yl}acetic acid]	11
Cc1c(-c2ccc(=O)n(Cc3cccc(F)c3F)c2)c2cc(F)ccc2n1CC#N [Example 310, 2-(3-(1-(2,3-difluorobenzyl)-6-oxo-1,6-dihydropyridin-3-yl)-5-fluoro-2-methyl-1H-indol-1-yl)acetonitrile]	> 1000
Cc1c(-c2ccc(=O)n(Cc3ccccc3)n2)c2cc(F)cc(S(C)(=O)=O)c2n1CC(=O)O [Example 236, 2-(3-(1-benzyl-6-oxo-1,6-dihydropyridazin-3-yl)-5-fluoro-2-methyl-7-(methyl-sulfonyl)-1H-indol-1-yl)acetic acid]	> 1000
Cc1c(-c2nn(Cc3ccccc3)c(=O)c3ccccc23)c2cc(F)cc(Cl)c2n1CC(=O)O [Example 243, 2-(3-(3-benzyl-4-oxo-3,4-dihydrophthalazin-1-yl)-7-chloro-5-fluoro-2-methyl-1H-indol-1-yl)acetic acid]	33
Cc1c(-c2cn(Cc3ccccc3)c(=O)c3ccccc23)c2cc(F)ccc2n1CC(=O)NS(C)(=O)=O [Example 323, 2-(3-(2-benzyl-1-oxo-1,2-dihydroisoquinolin-4-yl)-5-fluoro-2-methyl-1H-indol-1-yl)-N-(methylsulfonyl)acetamide]	518
Cc1c(-c2ccc(=O)n(Cc3cccc(F)c3)n2)c2cc(F)ccc2n1CC(=O)O [Example 154, 2-(5-Fluoro-3-(1-(3-fluorobenzyl)-6-oxo-1,6-dihydropyridazin-3-yl)-2-methyl-1H-indol-1-yl)acetic acid]	30
Cc1c(-c2nn(Cc3ccccc3)c(=O)c3ccccc23)c2cc(S(C)(=O)=O)cc(Cl)c2n1CC(=O)O [Example 14, 2-(3-(3-Benzyl-4-oxo-3,4-dihydrophthalazin-1-yl)-7-chloro-2-methyl-5-(methylsulfonyl)-1H-indol-1-yl)acetic acid]	169
Cc1ccccc1S(=O)(=O)NC(=O)Cn1c(C)c(-c2ccc(=O)n(Cc3ccccc3)c2)c2cc(F)ccc21 [Example 314, 2-(3-(1-Benzyl-6-oxo-1,6-dihydropyridin-3-yl)-5-fluoro-2-methyl-1H-indol-1-yl)-N-(o-tolyl-sulfonyl)acetamide]	> 1000
Cc1c(Cc2ccc(=O)n(C(C)C)c2)c2ccccc2n1CC(=O)O [Example 22]	765
Cc1c(-c2nn(Cc3ccccc3)c(=O)c3ccccc23)c2ccccc2n1CC(=O)N1CCCC1 [Example 49, 2-Benzyl-4-(2-methyl-1-(2-oxo-2-(pyrrolidin-1-yl)ethyl)-1H-indol-3-yl)phthalazin-1(2H)-one]	> 2000
Cc1c(-c2ccc(=O)n(C(C)C)c2)c2cc(Cl)ccc2n1CC(=O)O [Example 278, 2-(5-chloro-3-(1-isopropyl-6-oxo-1,6-dihydropyridin-3-yl)-2-methyl-1H-indol-1-yl)acetic acid]	198
Cc1c(-c2nn(Cc3ccc(S(C)(=O)=O)cc3)c(=O)c3ccccc23)c2cc(Cl)ccc2n1CC(=O)O [Example 332, (5-chloro-2-methyl-3-{3-[4-(methylsulfonyl)benzyl]-4-oxo-3,4-dihydro-phthalazin-1-yl}-1H-indol-1-yl)acetic acid]	26
Cc1cc(Cn2nc(-c3c(C)n(CC(=O)O)c4ccc(Cl)cc34)c3ccccc3c2=O)c2ccccc2n1 [Example 104, 2-(5-chloro-2-methyl-3-(3-((2-methylquinolin-4-yl)methyl)-4-oxo-3,4-dihydro-phthalazin-1-yl)-1H-indol-1-yl)acetic acid]	10
Cc1c(-c2nn(Cc3ccc(F)cc3F)c(=O)c3ccccc23)c2cc(F)ccc2n1CC(=O)O [Example 64, 2-(3-(3-(2,4-difluorobenzyl)-4-oxo-3,4-dihydrophthalazin-1-yl)-5-fluoro-2-methyl-1H-indol-1-yl)acetic acid]	9

SMILES	IC50 [nM]
Cc1c(-c2nn(CCCC(F)(F)F)c(=O)c3ccccc23)c2cc(F)ccc2n1CC(=O)O [Example 125, 2-(5-fluoro-2-methyl-3-(4-oxo-3-(4,4,4-trifluorobutyl)-3,4-dihydro-phthalazin-1-yl)-1H-indol-1-yl)acetic acid]	4
Cc1c(-c2nn(Cc3ccccc3)c(=O)c3ccccc23)c2cc(F)cc(F)c2n1CC(=O)O [Example 244, 2-(3-(3-benzyl-4-oxo-3,4-dihydrophthalazin-1-yl)-5,7-difluoro-2-methyl-1H-indol-1-yl)acetic acid]	60
Cc1c(-c2nn(CCC(F)(F)F)c(=O)c3ccccc23)c2cc(F)ccc2n1CC(=O)O [Example 127, 2-(5-fluoro-2-methyl-3-(4-oxo-3-(3,3,3-trifluoropropyl)-3,4-dihydro-phthalazin-1-yl)-1H-indol-1-yl)acetic acid]	4
Cc1c(-c2ccc(=O)n(Cc3ccc(F)cc3F)c2)c2cc(F)ccc2n1CC(=O)O [Example 273, 2-(3-(1-(2,4-difluorobenzyl)-6-oxo-1,6-dihydropyridin-3-yl)-5-fluoro-2-methyl-1H-indol-1-yl)acetic acid]	28
Cc1c(-c2ccc(=O)n(Cc3cc(F)ccc3F)n2)c2cc(F)ccc2n1CC(=O)O [Example 72, 2-(3-(1-(2,5-Difluorobenzyl)-6-oxo-1,6-dihydropyridazin-3-yl)-5-fluoro-2-methyl-1H-indol-1-yl)acetic acid]	43
Cc1c(-c2cn(CCc3ccccc3)c(=O)c3c2CCCC3)c2cc(F)ccc2n1CC(=O)O [Example 93, 2-(5-fluoro-2-methyl-3-(1-oxo-2-phenethyl-1,2,5,6,7,8-hexahydro-iso-quinolin-4-yl)-1H-indol-1-yl)acetic acid]	21
Cc1c(-c2nn(CCC(C(F)(F)F)C(F)(F)F)c(=O)c3ccccc23)c2cc(F)ccc2n1CC(=O)O [Example 137, 2-(5-fluoro-2-methyl-3-(4-oxo-3-(4,4,4-trifluoro-3-(trifluoromethyl)butyl)-3,4-dihydrophthalazin-1-yl)-1H-indol-1-yl)acetic acid]	21
Cc1c(-c2nn(Cc3ccc(F)cc3F)c(=O)c3ccccc23)c2cc(Cl)ccc2n1CC(=O)O [Example 61, 2-(5-chloro-3-(3-(2,4-difluorobenzyl)-4-oxo-3,4-dihydrophthalazin-1-yl)-2-methyl-1H-indol-1-yl)acetic acid]	11
Cc1c(-c2nn(CCc3ccccc3)c(=O)c3ccccc23)c2cc(F)ccc2n1CC(=O)O [Example 226, 2-(5-fluoro-2-methyl-3-(4-oxo-3-phenethyl-3,4-dihydrophthalazin-1-yl)-1H-indol-1-yl)acetic acid]	2
Cc1c(Cc2ccc(=O)n(Cc3cccc(F)c3F)n2)c2cc(F)ccc2n1CC(=O)O [Example 339, (3-{[1-(2,3-difluorobenzyl)-6-oxo-1,6-dihydropyridazin-3-yl]methyl}-5-fluoro-2-methyl-1H-indol-1-yl)acetic acid]	4
Cc1c(-c2nn(Cc3ccc(C(F)(F)F)c(F)c3)c(=O)c3ccccc23)c2cc(Cl)ccc2n1CC(=O)O [Example 3, 2-(5-Chloro-3-(3-(3-fluoro-4-(trifluoromethyl)benzyl)-4-oxo-3,4-dihydrophthalazin-1-yl)-2-methyl-1H-indol-1-yl)acetic acid]	58
Cc1c(-c2nn(Cc3c(F)cccc3F)c(=O)c3ccccc23)c2cc(F)ccc2n1CC(=O)O [Example 116, 2-(3-(3-(2,6-difluorobenzyl)-4-oxo-3,4-dihydrophthalazin-1-yl)-5-fluoro-2-methyl-1H-indol-1-yl)acetic acid]	7
Cc1c(-c2nn(CC(N)=O)c(=O)c3ccccc23)c2cc(Cl)ccc2n1CC(=O)O [Example 259c, 2-(3-(3-(2-amino-2-oxoethyl)-4-oxo-3,4-dihydrophthalazin-1-yl)-5-chloro-2-methyl-1H-indol-1-yl)acetic acid]	23
Cc1c(Cc2ccc(=O)n(Cc3ccc(F)c(F)c3)c2)c2ccccc2n1CC(=O)O [Example 30, 2-(3-((1-(3,4-Difluorobenzyl)-6-oxo-1,6-dihydropyridin-3-yl)methyl)-2-methyl-1H-indol-1-yl)acetic acid]	153
Cc1c(-c2ccc(=O)n(Cc3ccccc3)n2)c2cc(Cl)cc(F)c2n1CC(=O)O [Example 10, 2-(3-(1-Benzyl-6-oxo-1,6-dihydropyridazin-3-yl)-5-chloro-7-fluoro-2-methyl-1H-indol-1-yl)acetic acid]	106
Cc1c(-c2ccc(=O)n(CC(F)(F)F)n2)c2ccccc2n1CC(=O)O [Example 185, 2-(2-methyl-3-(6-oxo-1-(2,2,2-trifluoroethyl)-1,6-dihydropyridazin-3-yl)-1H-indol-1-yl)acetic acid]	> 1000

From patent US20110105509A1 (Wyeth, LLC, priority 2009, published 2011)
